Results reported in ChEMBL document CHEMBL5344429, “1,3-Substituted β-Carboline Derivatives as Potent Chemotherapy for the Treatment of Cystic Echinococcosis” (J Med Chem, 2023).

Key:
[1] = tested on: Echinococcus granulosus; experiment: Inhibition of Echinococcus granulosus; format: functional
[2] = tested on: Echinococcus granulosus; experiment: Antiparasitic acitivity against Echinococcus granulosus infected at 25 mg/kg; format: functional

CCCCn1c2ccccc2c2ccnc(-c3ccccc3Cl)c21
LC50 [1]: 41.6 µM | Activity [2]: 32.91%
